The test system of data set [1] is Sprague-Dawley rats. Description: animal or person. The class given is in vivo. Particulars: rats; for ED50: LORR, up and down method, tail vein, class symbols. From the text: Evaluating indicator: The end point of anesthesia: LORR was used as the end point of anesthesia; General anesthesia effect: the disappearance of forepaw righting reflex in rats lasting for 30 seconds is taken as the index of general anesthesia effect; Anesthesia recovery index: the recovery of rat forepaw righting reflex was used as the index of anesthesia recovery.

The test system of data set [2] is Sprague-Dawley rats. Description: Pharmacological effect and adverse reactions under the equivalent dose (2ED50), Group C compounds. It counts as in vivo. The conditions noted are these: for Righting reflex duration / Sedation duration / Onset time: 2ED50, tail vein, rats, n=8; for Onset time: unit s; for Adverse reaction: Convulsions / Adverse reaction: Cough, broken-winded / Adverse reaction: Euphoria / Adverse reaction: Red urine / Adverse reaction: Slower breathing, Tetany convulsion / Adverse reaction: Systemic stiffness, Convulsions, Opisthotonus / Adverse reaction: Tongue stretching / Adverse reaction: Tremor / Adverse reaction: the four limbs rigidity: equivalent dose (2ED50), number of rats of n = 8. The text has this: (§1) Evaluation index: onset time: from the completion of drug injection to the disappearance of forepaw righting reflex in rats; Duration of anesthesia: the time from the disappearance of rat forepaw righting reflex to the recovery of rat forepaw righting reflex; Recovery time of anesthesia: the time from the […] to complete recovery;

The test system of another data set is adrenal cortex function. Description: Adrenocortical function in rats: corticosterone after dexamethasone and ACTH, Group C compounds. The conditions noted are these: for Give ACTH 30min later(S2) corticosterone concentration: drug at 2ED50, 30 min after ACTH 25 ug/kg; for Baseline(S1) corticosterone concentration: two hours after dexamethasone 0.5 mg/kg, before drug. As to the method:
Instruments and equipment: multi-function ion meter (METTLER TOLEDO, models: SevenMulti), pipetting gun (Eppendorf, specifications: 1000 ul, 200 ul, 100 ul, 10 ul), electronic balance (model: ME215S, manufacturers: Sartorius, Germany), the timer. Experimental Method: Adult male Sprague-Dawley rats (250-300 g) were selected for the experiment (n=8), all the experiment were started in the morning. Place indwelling needles in tail vein of rats and inject dexamethasone (0.5 mg/kg). The first time of blood collection (S1) is in two hours later, and give dexamethasone (0.2 mg/kg). […] All the drugs were administered in a volume of 0.6 ml and at a rate of 0.1 ml/s. 15 min later, exogenous ACTH (25 ug/kg) was injected. Another blood sample was collected after 30 min(S2). The blood samples were left standing at room temperature for 30-60 min, followed by centrifugation at 3500 rpm for 10 min. The supernatant was taken and centrifuged again at 15000 rpm for 5 min before being frozen and stored in a −20° C. refrigerator.
Evaluation indexes: The concentration of the corticosterone in the supernatant of rats before and after given drugs.

The test system of data set [3] is SD rats. Particulars: for After the infusion is stopped: Righting reflex recovery time / Recovery time after stopping infusion: after 1 hour continuous infusion at 2 times the MIR; for After the infusion is stopped: Righting reflex recovery time / Recovery time after stopping infusion / Sedation onset time: SD rats; for Sedation onset time: continuous tail vein infusion at 2 times the MIR. The procedure:
(§2) Experimental Methods: Adult male SD rats with body weight ranging from 250 g to 350 g were selected for continuous infusion test.
(§3) Evaluation indexes: the time from the beginning of continuous infusion to the […] of sedation in rats; the time from the cessation of infusion to the restoration of the forepaw turning reflex after 1 hour of continuous infusion; the time from the cessation of infusion to the complete restoration of rats after 1 hour of continuous infusion.

For data set [4], the system named is Sprague-Dawley rats. It counts as in vivo. Particulars: tail vein.
The subject of data set [5] is Sprague-Dawley rats. Description: animal or person. It counts as in vivo. The conditions noted are these: rats; for ED50: Rattus norvegicus, LORR, up and down method, tail vein, class symbols, read-out: ED50. From the text: Evaluating indicator: The end point of anesthesia: the disappearance of forepaw righting reflex (lorr) was used as the end point of anesthesia; General anesthesia effect: the disappearance of forepaw righting reflex in rats lasting for 30 seconds is taken as the index of general anesthesia effect; Anesthesia recovery index: the recovery of rat forepaw righting reflex was used as the index of anesthesia recovery.

Data set [6] concerns Sprague-Dawley rats. Description: Pharmacological effect and adverse reactions under the equivalent dose (2ED50), Group D compounds. The class given is in vivo. The conditions noted are these: for Righting reflex duration / Sedation duration / Onset time: 2ED50, tail vein, rats, n=8; for Adverse reaction: Convulsions / Adverse reaction: Cough, broken-winded / Adverse reaction: Euphoria / Adverse reaction: Four limbs rigidity / Adverse reaction: Red urine / Adverse reaction: Slower breathing, Tetany convulsion / Adverse reaction: Systemic stiffness, Convulsions, Opisthotonus / Adverse reaction: Tongue stretching / Adverse reaction: Tremor: equivalent dose (2 × ED50), number of rats of n = 8.
Text: as §1

Data set [7] relates to SD rats. Particulars: for After the infusion is stopped: Righting reflex recovery time / Recovery time after stopping infusion: after 1 hour continuous infusion at 2 times the MIR; for After the infusion is stopped: Righting reflex recovery time / Recovery time after stopping infusion / Sedation onset time: SD rats; for Sedation onset time: continuous tail vein infusion at 2 times the MIR. As to the method:
as §2, §3
The source holds these as a separate data set.

Data set [8] relates to Sprague-Dawley rats. The class given is in vivo. Particulars: tail vein. This is another data set of the same source.
The mark [9] stands for this setting: continuous infusion 2 x MIR 1 hour, rats affected/rats.

Structures are written as SMILES. Where two headings read alike, the source gives them in different places. A value given as a limit tells only on which side of the number the result lay.

From patent US12570612B2, “Substituted nitrogen heterocyclic compound and anesthetic effect thereof” (priority 2019, dated 2026) come the findings set out here.

As for `CCOCC(=O)c1ccnn1[C@H](C)c1ccccc1` [Compound C2], in the data set with Sprague-Dawley rats [1], the ED50 result is on record as “++++ (++++ indicates that the measured ED50 is in the range of 2.00-10.00 mg/kg (excluding 2.00 mg/kg, including 6.00 mg/kg))” and the Approximate therapeutic index was greater than 2.5. Further, in the data set on Sprague-Dawley rats [2], the Righting reflex duration amounted to 1.78 ± 0.53 min, the Sedation duration is 5.38 ± 0.78 min, the Onset time was less than 30 s and the “Adverse reaction: Convulsions” value is 0. Besides, in the data set with Sprague-Dawley rats [2], the “Adverse reaction: Cough, broken-winded” value came to 0; the “Adverse reaction: Euphoria” value is 0; the “Adverse reaction: Red urine” value came out at 8; the “Adverse reaction: Slower breathing, Tetany convulsion” value (“Adverse reaction: Slower breathing” below) is 0. In the data set with Sprague-Dawley rats [2], the “Adverse reaction: Systemic stiffness, Convulsions, Opisthotonus” value (“Adverse reaction: Systemic stiffness” below) came out at 0; the “Adverse reaction: Tongue stretching” value is listed as 2; the “Adverse reaction: Tremor” value is listed as 0; the “Adverse reaction: the four limbs rigidity” value came out at 0. Besides, in the data set with adrenal cortex function, the “Give ACTH 30min later(S2) corticosterone concentration” value stood at 242.12 ± 46.22 and the “Baseline(S1) corticosterone concentration” value amounted to 163.22 ± 35.11. For the same compound, in the data set with SD rats [3], the “After the infusion is stopped: Righting reflex recovery time” value (from here on “After the infusion is stopped”) fell in the range of 10 to 15 min, the “Recovery time after stopping infusion” value lay within 20 to 30 min and the Sedation onset time is recorded as less than 5 min. Further, in the data set on SD rats [3] (setting [9]), the “Types and incidence of adverse reactions: Red urine” value (“Types and incidence … Red urine” below) is 6/6; the “Types and incidence of adverse reactions: Tongue stretching” value (“Types and incidence … Tongue stretching” for short) is “Tongue stretching(4/6)”; the “Types and incidence of adverse reactions: Tremor” value (“Types and incidence … Tremor” below) is on record as 3/6. In the data set with Sprague-Dawley rats [4], the Minimal lethal dose was greater than 12.4 mg/kg.
Regarding `C#CCOCC(=O)c1cc(F)nn1[C@H](C)c1ccccc1` [Compound C15], in the data set on Sprague-Dawley rats [1], the ED50 entry was “++++ (++++ indicates that the measured ED50 is in the range of 2.00-10.00 mg/kg (excluding 2.00 mg/kg, including 6.00 mg/kg))” and the Approximate therapeutic index is greater than 3.4. Besides, in the data set with Sprague-Dawley rats [2], the Righting reflex duration worked out at 2.13 ± 0.59 min, the Sedation duration is listed as 5.3 ± 0.92 min, the Onset time is less than 30 s and the “Adverse reaction: Convulsions” value was 0. In the data set on Sprague-Dawley rats [2], the “Adverse reaction: Cough, broken-winded” value is 0; the “Adverse reaction: Euphoria” value amounted to 0; the “Adverse reaction: Red urine” value is given as 8; the “Adverse reaction: Slower breathing” value came to 0. In addition, in the data set on Sprague-Dawley rats [2], the “Adverse reaction: Systemic stiffness” value is given as 0; the “Adverse reaction: Tongue stretching” value amounted to 0; the “Adverse reaction: Tremor” value is recorded as 1; the “Adverse reaction: the four limbs rigidity” value is listed as 0. Also, in the data set on adrenal cortex function, the “Give ACTH 30min later(S2) corticosterone concentration” value was 267.99 ± 33.20 and the “Baseline(S1) corticosterone concentration” value is on record as 145.90 ± 54.33. In the data set on SD rats [3], the “After the infusion is stopped” value was in the range of 16 to 18 min, the “Recovery time after stopping infusion” value is 30 to 36 min and the Sedation onset time is on record as less than 5 min. Also, in the data set with SD rats [3] (setting [9]), the “Types and incidence … Red urine” value is 6/6; the “Types and incidence … Tremor” value was 1/6. In the data set with Sprague-Dawley rats [4], this compound had a Minimal lethal dose greater than 16.8 mg/kg.
Turning to `COC(OC)(OC)C(=O)c1c(F)cnn1[C@H](C)c1ccccc1` [Compound D29], in the data set with Sprague-Dawley rats [5], the ED50 lay within 0.04 to 0.5 mg/kg and the Approximate therapeutic index was greater than 4.1. Moreover, in the data set with Sprague-Dawley rats [6], the Righting reflex duration stood at 1.24 ± 0.06 min; the Sedation duration was 2.26 ± 0.59 min; the “Adverse reaction: Convulsions” value was found to be 0; the “Adverse reaction: Cough, broken-winded” value is 0. In addition, in the data set on Sprague-Dawley rats [6], the “Adverse reaction: Euphoria” value was determined as 0; the “Adverse reaction: Four limbs rigidity” value is recorded as 3; the “Adverse reaction: Red urine” value is 8; the “Adverse reaction: Slower breathing” value is on record as 0. Besides, in the data set with Sprague-Dawley rats [6], the “Adverse reaction: Systemic stiffness” value is on record as 0; the “Adverse reaction: Tongue stretching” value came to 0; the “Adverse reaction: Tremor” value came out at 4. The Onset time in the data set with Sprague-Dawley rats [6] (unit s) is reported as less than 30 s. For the same compound, in the data set with SD rats [7], the “After the infusion is stopped” value was 12 to 20 min, the “Recovery time after stopping infusion” value was 20 to 25 min and the Sedation onset time is reported as less than 5 min. Further, in the data set with SD rats [7] (setting [9]), the “Types and incidence … Red urine” value is “Red urine(6/6), Tongue”; the “Types and incidence … Tongue stretching” value is “stretching(4/6)”. In the data set on Sprague-Dawley rats [8], this compound came in with a Minimal lethal dose greater than 3.6 mg/kg.
In the case of `COC(OC)(OC)C(=O)c1cncn1[C@H](C)c1ccccc1` [Compound D77], in the data set with Sprague-Dawley rats [5], the median effective dose (ED50) was in the range of 0.04 to 0.5 mg/kg and the Approximate therapeutic index is greater than 21.0. For the same compound, in the data set with Sprague-Dawley rats [6], the Righting reflex duration worked out at 1.43 ± 0.22 min; the Sedation duration amounted to 3.68 ± 0.56 min; the “Adverse reaction: Convulsions” value was found to be 0; the “Adverse reaction: Cough, broken-winded” value worked out at 0. In the data set with Sprague-Dawley rats [6], the “Adverse reaction: Euphoria” value is listed as 0; the “Adverse reaction: Four limbs rigidity” value came to 0; the “Adverse reaction: Red urine” value is on record as 8; the “Adverse reaction: Slower breathing” value is listed as 0. Also, in the data set with Sprague-Dawley rats [6], the “Adverse reaction: Systemic stiffness” value was found to be 8; the “Adverse reaction: Tongue stretching” value is reported as 1; the “Adverse reaction: Tremor” value came to 0. Moreover, the Onset time in the data set with Sprague-Dawley rats [6] (unit s) is less than 30 s. Moreover, in the data set on SD rats [7], the “After the infusion is stopped” value is 12 to 16 min, the “Recovery time after stopping infusion” value fell in the range of 20 to 30 min and the Sedation onset time was less than 5 min. Also, in the data set with SD rats [7] (setting [9]), the “Types and incidence … Red urine” value is recorded as “Red urine(6/6), Tongue”; the “Types and incidence … Tongue stretching” value was “stretching(3/6), Tremor(3/6)”; the “Types and incidence … Tremor” value was “stretching(3/6), Tremor(3/6)”. In addition, the Minimal lethal dose with Sprague-Dawley rats [8] is recorded as greater than 1.4 mg/kg.
Regarding `CCOC(=O)C(=O)c1cncn1[C@H](C)c1ccccc1` [Compound D81], in the data set with Sprague-Dawley rats [5], the ED50 lay within 0.5 to 1 mg/kg and the Approximate therapeutic index is greater than 15.2. In the data set with Sprague-Dawley rats [6], the Righting reflex duration amounted to 1.35 ± 0.12 min; the Sedation duration came to 4.87 ± 0.39 min; the “Adverse reaction: Convulsions” value was 0; the “Adverse reaction: Cough, broken-winded” value came to 0. Also, in the data set with Sprague-Dawley rats [6], the “Adverse reaction: Euphoria” value is on record as 0; the “Adverse reaction: Four limbs rigidity” value is 1; the “Adverse reaction: Red urine” value worked out at 8; the “Adverse reaction: Slower breathing” value was 0. For the same compound, in the data set with Sprague-Dawley rats [6], the “Adverse reaction: Systemic stiffness” value was found to be 0; the “Adverse reaction: Tongue stretching” value is on record as 0; the “Adverse reaction: Tremor” value worked out at 1. The Onset time with Sprague-Dawley rats [6] (unit min) was less than 60 s. In addition, in the data set on SD rats [7], the “After the infusion is stopped” value lay in the range of 13 to 14 min, the “Recovery time after stopping infusion” value fell in the range of 15 to 25 min and the Sedation onset time was less than 5 min. In addition, in the data set with SD rats [7] (setting [9]), the “Types and incidence … Red urine” value is 6/6; the “Types and incidence … Tremor” value is 2/6; the “Types and incidence of adverse reactions: the four limbs rigidity” value is “the four limbs rigidity(2/6)”. The compound further gave a Minimal lethal dose with Sprague-Dawley rats [8] greater than 12.6 mg/kg.
